Experimental data published in publication PMC12434521, “Characterization of Next-Generation Inhibitors for the Inward-Rectifier Potassium Channel Kir2.1: Discovery of VU6080824” (ACS Medicinal Chemistry Letters, 2025).

Tests used:
human Kir2.1 = molecular target: T1, human Kir2.1 (Homo sapiens, UniProt P63252); test: Kir2.1 thallium flux assay; assay type: cell-based; details: for IC50 / Thallium Flux Potency IC50: T-REx-HEK-293 cells expressing human Kir2.1, 4PL fit, top concentration 30 μM; for IC50: read-out: Thallium Flux Potency IC50; for inhibition at 30 µM: compounds not fitting 4PL (> 10 μM): value at 30 μM relative to 30 μM ML133, read-out: Thallium Flux Efficacy (% Inhibition), 30 μM measured value; for Thallium Flux Efficacy (% Inhibition) / Emax: efficacy from 4PL fit, relative to ML133; for Emax: read-out: Thallium Flux Efficacy (% Inhibition)
T1 construct: expressed in transfected cells
T1 sequence (P63252 1-427): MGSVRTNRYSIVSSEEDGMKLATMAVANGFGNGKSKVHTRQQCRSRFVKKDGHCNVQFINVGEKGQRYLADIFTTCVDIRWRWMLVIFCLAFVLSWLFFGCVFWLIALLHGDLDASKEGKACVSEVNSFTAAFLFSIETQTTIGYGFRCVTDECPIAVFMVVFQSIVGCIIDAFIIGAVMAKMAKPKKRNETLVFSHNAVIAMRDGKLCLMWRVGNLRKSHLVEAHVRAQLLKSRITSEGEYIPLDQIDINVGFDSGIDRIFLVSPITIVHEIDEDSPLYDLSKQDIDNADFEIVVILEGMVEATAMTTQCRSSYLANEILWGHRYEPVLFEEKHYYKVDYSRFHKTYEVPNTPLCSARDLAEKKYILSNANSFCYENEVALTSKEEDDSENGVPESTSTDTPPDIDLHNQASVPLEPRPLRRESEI
Experimental: Thallium Flux Assay Experimental Conditions
The Tl+ flux assays were conducted as previously described with modifications optimized for Kir2.1 cell line as described below.1
Briefly, stable T-REx-HEK-293 cells expressing human K ir2.1 were cultured in DMEM growth medium (Catalog #11965-092, Gibco, Billings, MT) containing 10% heat-inactivated FBS (Catalog #16140, Gibco), 100 U/mL PenStrep, 5 μg/mL Blasticidin S, and 250 μg/mL Hygromycin.
The day prior to the experiment, cells at ~90% confluency were resuspended in plating media, which consisted of the same components as the growth media, except that heat-inactivated FBS was replaced with dialyzed FBS (Catalog #26400, Gibco). Tetracycline was added to the plating media to achieve a final concentration of 1 μg/ml to induce hKir2.1 expression. Cells were then counted and plated at 15,000 cells/well in black-walled, amine- or PDL- coated, 384-well plates at 20 μl/well (Corning, Corning, NY). On the day of experiment, the media was removed from the cell plate and replaced with 20 μl/well of Tl+-sensitive dye loading solution containing 2.5 μg/ml Thallos-AM (Catalog #11000-050, ION Biosciences, San Marcos, TX) in assay buffer using a Multidrop Combi dispenser (Thermo Fisher Scientific, Walkham, MA). Cell plates loaded with dye solution were incubated for 1 hour at room temperature. Following incubation, the cell plate was washed with HBSS assay buffer containing 20 mM HEPES using a BioTek ELx 405 TS plate washer (Agilent, Santa Clara, CA), leaving 20 μl of assay buffer in each well. The cell plate was then transferred to a Panoptic kinetic imaging plate reader (WaveFront Biosciences, Franklin, TN) for imaging at 1 Hz, 482/35 nm excitation and 536/40 nm emission for 10 seconds. Following this, 20 μl/well of HBSS assay buffer containing test compounds at 2-fold over their final concentrations were added and imaging continued for another eight minutes, after which 10 μl/well of chloride-free Tl+ stimulus solution was added (Catalog #11000-050, ION Biosciences). The final Tl2SO4 concentration in cell plate post-Tl+ stimulus solution addition was 0.25 mM. Images were collected for an additional two minutes. A ten-point concentration series from 30 μM to 2 nM with a 1:3 dilution factor was generated using an Echo liquid handler 650 (Labcyte, San Jose, CA). Final DMSO concentration, 0.3% (v/v) in the assay was constant across all compound concentrations.
The initial slopes of the Tl+-induced fluorescence changes were fit to a four-parameter logistic equation using our in-house software Waveguide to determine potency and efficacy values. […]
Bauer, J. A.; Days, E. L.; Lindsley, C. […]

[1] = Rat PK PBL cassette (i.v.); assay type: in vivo, Sprague-Dawley rat; details: Sprague-Dawley, iv, male SD rat, 0.2 mg/kg i.v. cassette
From the text: While ML133 has found use as a Kir2.1 tool molecule across many disease models, the in vivo PK of this and related compounds within the dibenzylamine chemotype have not previously been characterized. As a highly efficient method for profiling the PK of a compound set, we therefore examined ML133 (alongside 9 additional next-generation Kir2.1 inhibitors) in our rat PK PBL cassette dosing platform (Table ). − From this experimental setup, administration of a 4-compound bolus dose, plus a standard control, can be used to determine a variety of PK parameters in a high-throughput fashion. Specifically, Sprague–Dawley (SD) rats were given 0.2 mg/kg of each Kir2.1 inhibitor (i.v. dosing, 4 compounds +1 control, total dose 1 mg/kg) with PK measured across set time points up to 24 h. Additionally, a separate cohort of animals was utilized to assess total plasma-brain levels (PBL, ratio reported as Kp) of compound at a 0.25 time point. In this fashion, standard plasma-based PK parameters (elimination t 1/2, […] (MRT), plasma clearance (CLp), and volume of distribution (Vss)) were measured alongside a parallel assessment of total brain exposure.
PK PBL Cassette Experimental Conditions
4 compounds plus one control were formulated as a solution in ethanol, PEG400, and DMSO (1:3:6 v/v, respectively) at a concentration of 1 mg/mL and administered as a single IV dose (1 mL/kg, 0.2 mg/kg per compound, total 1 mg/kg) to male, Sprague Dawley rats (n = 1) via injection into a surgically -implanted jugular vein catheter. Blood samples were collected serially from a surgically implanted carotid artery catheter in each animal over multiple post -administration time points (0.033, 0.117, 0.25, 0.5, 1, 2, 4, 7, and 24 hours) into chilled, K 2EDTA anticoagulant - fortified tubes and immediately placed on wet ice. The blood samples were then centrifuged (1700 rcf, 5 minutes, 4 °C) to ob tain plasma samples, which were stored at -80 °C until analysis […]
For determination of the brain over plasma ratio (K p), the same cassette of compounds plus control were formulated in ethanol, PEG400, and DMSO (1:3:6 v/v, respectively) and administered as a single IV dose (1 mL/kg, 0.2 mg/kg per compound, total 1 mg/kg) to male, Sprague Dawley rats ( n = 1) via injection into a surgically-implanted jugular vein catheter. At 15 min post dosing, blood sample was collected terminally into chilled, K 2EDTA anticoagulant-fortified tube and immediately placed on wet ice. The bloo d sample was then centrifuged (1700 rcf, 5 minutes, 4 °C) to obtain plasma sample. At the same post-administration time point, whole brain sample was obtained by rapid dissection, rinsed with PBS, and immediately frozen in individual tissue collection box (dry ice). All brain and plasma samples were stored at -80 °C until […]
Samples preparation for bioanalysis
Plasma samples from the in-life phase of the study were thawed at ambient temperature (benchtop), and then aliquots (20 µL per sample) were transferred to a 96-shallow-well (V-bottom) plate. Matrix-matched quality control (QC) samples and a standard curve of each analyte (1 mg/mL DMSO stock solution) were prepared in blank rat plasma (K2EDTA-treated) via serial dilution and transferred (20 µL each) to the plate along with multiple blank plasma samples. MeCN (120 µL) containing IS (10 nM carbamazepine) was added to each well of the plate to precipitate protein. The plate was then centrifuged (4000 rcf, 5 minutes, ambient temperature), and resulting supernatants (60 µL each) were transferred to a new 96-shallow-well (V-bottom) plate containing an equal volume (60 µL per well) of water (Milli-Q purified). The plate was then sealed in preparation for LC-MS/MS analysis.
Preparation of brain samples was identical to that of plasma samples except for the following modifications. While thawing, brains were weighed (inside their collection boxes using a universal empty collection box tare weight) and then subjected to mechanical homogenization […]

Structure (SMILES) | IC50 (human Kir2.1) [µM] | inhibition at 30 µM (human Kir2.1) [%] | Thallium Flux Potency IC50 (human Kir2.1) | Thallium Flux Efficacy (% Inhibition) (human Kir2.1) | further results
FC(F)Oc1ccc(CNCc2cccc3ccccc23)cc1 [Compound 3a] | > 10 | 45 |  |  | 
N#Cc1ccc(CNCc2cccc3ccccc23)cc1 [Compound 3b] | > 10 | 88 |  |  | 
FS(F)(F)(F)(F)c1ccc(CNCc2cccc3ccccc23)cc1 [Compound 3c] |  |  | inactive | inactive | 
O=C1CCCN1c1ccc(CNCc2cccc3ccccc23)cc1 [Compound 3d] |  |  | inactive | inactive | 
Cc1cc(C)n(-c2ccc(CNCc3cccc4ccccc34)cc2)n1 [Compound 3e] | > 10 | 50 |  |  | 
OCc1ccc(CNCc2cccc3ccccc23)cc1 [Compound 3f] |  |  | inactive | inactive | 
COc1ccc2c(c1)CCN(Cc1cccc3ccccc13)C2 [Compound 3g] |  |  | inactive | inactive | 
c1ccc2c(c1)CN(Cc1cccc3ccccc13)CCO2 [Compound 3h] |  |  | inactive | inactive | 
COCCOc1ccc(CNCc2cccc3ccccc23)cc1 [Compound 3j] |  |  | inactive | inactive | 
O=S1(=O)CCCN1c1ccc(CNCc2cccc3ccccc23)cc1 [Compound 3k] |  |  | inactive | inactive | 
CP(C)(=O)c1ccc(CNCc2cccc3ccccc23)cc1 [Compound 3l] |  |  | inactive | inactive | 
COc1ccc(CNCc2nccc3ccccc23)cc1 [Compound 5a] |  |  | inactive | inactive | 
COc1ccc(CNCc2cncc3ccccc23)cc1 [Compound 5b] | 24.8 |  |  |  | Fold less potent than ML133 in the thallium flux assay (human Kir2.1): approximately 2 fold; Emax (human Kir2.1): 140%; Kp at 0.25 h ([1]; brain and plasma, 0.25 time point (15 min post dosing), read-out: Kp (total brain to plasma ratio)): 1.05; AUC ([1]; plasma, n = 1, read-out: AUC): 183 ng·h/mL; clearance ([1]; plasma, n = 1, read-out: CLp): 18.2 mL/min/kg; half-life ([1]; plasma, n = 1, read-out: Elim. t1/2 (converted)): 17.4 min; MRT ([1]; plasma, n = 1, read-out: MRT): 21.6 min; Vd ([1]; plasma, n = 1, read-out: Vss): 0.39 L/kg
COc1ccc(CNCc2cccc3cnccc23)cc1 [Compound 5c] | > 10 | 45 |  |  | 
COc1ccc(CNCc2cccc3ncccc23)cc1 [Compound 5d] |  |  | inactive | inactive | 
COc1ccc(CNCc2ccnc3ccccc23)cc1 [Compound 5e] | > 10 | 75 |  |  | 
COc1ccc(CNCc2cccn3ccnc23)cc1 [Compound 5f] |  |  | inactive | inactive | 
COc1ccc(CNCc2cccc3c2OC(F)(F)O3)cc1 [Compound 5g] |  |  | inactive | inactive | 
COc1ccc(CNCc2ccc(-c3ccccn3)cc2)cc1 [Compound 5l] | > 10 | 90 |  |  | 
COc1ccc(CNCc2ccc(-c3cccnc3)cc2)cc1 [Compound 5m] | 10.8 |  |  |  | Emax (human Kir2.1): 98%
COc1ccc(CNCc2ccc(-c3ccncc3)cc2)cc1 [Compound 5n] | 12.5 |  |  |  | Emax (human Kir2.1): 98%
COc1ccc(CNCc2ccc(-c3ccccc3F)cc2)cc1 [Compound 5o] | 10.7 |  |  |  | Emax (human Kir2.1): 102%
COc1ccc(CNCc2ccc(-c3ccc(F)cc3)cc2)cc1 [Compound 5q] | 9.3 |  |  |  | Emax (human Kir2.1): 99%
COc1ccc(CNCc2ccc(-c3cnn(C)c3)cc2)cc1 [Compound 5u] |  |  | inactive | inactive | 
COc1ccc(CNCc2ccc(N3CCCC3)cc2)cc1 [Compound 5v] | > 10 | 96 |  |  | 
COc1ccc(CNCc2ccc(N3CCCCC3)cc2)cc1 [Compound 5w] | > 10 | 53 |  |  | 
COc1ccc(CNCc2ccc(N3CCCCCC3)cc2)cc1 [Compound 5x] | > 10 | 46 |  |  | 
COc1ccc(CNCc2ccc(N3CCOCC3)cc2)cc1 [Compound 5y] |  |  | inactive | inactive | 
COc1ccc(CNCc2ccc(N3CCCCS3(=O)=O)cc2)cc1 [Compound 5z] |  |  | inactive | inactive | 
